Measurements from patent publication EP0072352B1, “Benzazepin-2-ones, process for their preparation, pharmaceutical preparations containing these compounds and the compounds for therapeutical use” (CIBA-GEIGY AG, priority 1981, dated 1983).

Test system: durch Angiotensin I (AI) hervorgerufene Blutdrucksteigerung
Experiment: Inhibition of the angiotensin I (AI) induced blood pressure rise after intravenous administration of the test compound
Format: in vivo, Ratten
Settings: for % AI Hemmung: rat, mean inhibition within 30 min after administration
Text: Die Verbindungen der Erfindung zeigen nach intravenöser oder oraler Verabreichung eine hemmende Wirkung gegen die durch Angiotensin I hervorgerufene Blutdrucksteigerung auch an normotensiven Ratten. Das Angiotensin 1 wird durch das genannte Umwandlungsenzym zu der stark blutdrucksteigernden Substanz Angiotensin II hydrolysiert. Die Hemmung des genannten Enzyms blockiert die Bildung von Angiotensin II aus Angiotensin I. In dieser Weise wird die durch Angiotensin I provozierte Blutdrucksteigerung abgeschwächt.
Der entsprechende in-vivo-Test mit den intravenös verabreichten Verbindungen wird mit männlichen normotensiven Ratten, welche mit dem Natriumsalz der 5-Äthyl-5-(1-methylpropyl)-2-thiobarbitursäure narkotisiert sind, durchgeführt. Eine femorale Arterie und eine Wadenvene werden mit je einer Hohlnadel für die direkte Messung des Blutdrucks und für die intravenöse Verabreichung des Angiotensins I und einer erfindungsgemäßen Verbindung versehen. Nach der Stabilisierung des basalen Blutdrucks wird die Druckänderung nach drei, in 5-minütigen Intervallen, i. v. durchgeführten Reizungen mit 333 ng/kg Angiotensin I bestimmt. Solche Druckänderungen werden wieder nach 5,10,15, 30 und 60 Minuten nach intravenöser Verabreichung der zu prüfenden Verbindung bestimmt. Die letztgenannten Druckänderungen werden mit den Anfangswerten verglichen. Jede festgestellte Abnahme vom Ansprechen des Blutdrucks ist ein Hinweis auf die Hemmung des Enzyms, welches das Angiotensin I umwandelt. Als Illustration der Erfindung sei auf das « höher schmelzende » 1-Carboxymethyl-3-(1-äthoxycarbonyl-3-phenylpropylamino)-2,3,4,5-tetrahydro-1H-[1] benzazepin-2-on des Beispiels 1 und auf das entsprechende S,S-Enantiomere des Beispiels 12 hingewiesen. Diese hemmen vollständig die Blutdrucksteigerung nach Angiotensin I-Reizung während 30 Minuten nach intravenöser Verabreichung einer Dosis von 1 mg/kg pro Substanz.
In der in vivo Prüfungsmethode wird zuerst durch Verabreichung des Angiotensins I (AI) an das Versuchstier eine Blutdrucksteigerung hervorgerufen. Es wird dann die Hemmung der einzelnen Verbindungen auf diese Blutdrucksteigerung gemessen.
11. Methode der Hemmung der durch Angiotensin I (AI) hervorgerufenen Blutdrucksteigerung, durch intravenöse Verabreichung der Testverbindung (% AI-Hemmung)
In diesen Untersuchungen wird wie oben beschrieben, je ein Katheter in eine femurale Arterie und in eine Wadenvene der Ratte eingeführt.
Der arterielle Druck wurde von dem Arterienkatheter aus registriert, während man Angiotensin I (AI) und die einzelnen Testverbindungen durch den Venenkatheter injiziert hatte. Die Hemmung der durch Angiotensin I verursachten Blutdrucksteigerung ist als prozentuelle Abnahme des vor der Behandlung erhaltenen Kontrollwertes der Blutdrucksteigerung ausgedrückt und in der Tabelle als Durchschnittswert der Hemmung innerhalb 30 Minuten nach Verabreichung der Testsubstanz angegeben. (Siehe Tabelle Seite 41 f.)

Row | SMILES | Hemmung der Blutdrucksteigerung nach Angiotensin I-Reizung (1 mg/kg i.v., anaesthetised male normotensive rats, during 30 min after administration, 333 ng/kg angiotensin I) | % AI Hemmung (i.v. Dosis 0.1 mg/kg) [%] | % AI Hemmung (i.v. Dosis 1.0 mg/kg) [%] | % AI Hemmung (i.v. Dosis 10 mg/kg) [%] | % AI Hemmung (i.v. Dosis 0.007 mg/kg) [%] | % AI Hemmung (i.v. Dosis 0.01 mg/kg) [%] | % AI Hemmung (i.v. Dosis 0.02 mg/kg) [%] | % AI Hemmung (i.v. Dosis 0.03 mg/kg) [%] | % AI Hemmung (i.v. Dosis 0.06 mg/kg) [%]
1 | CCOC(=O)[C@H](CCc1ccccc1)N[C@H]1CCc2ccccc2N(CC(=O)O)C1=O (racemic) [Beispiel 1, 1-Carboxymethyl-3-(1-äthoxycarbonyl-3-phenylpropylamino)-2,3,4,5-tetrahydro-1H-[1] benzazepin-2-on] | vollständig | 50 | 100 | 100 |  |  |  |  | 
2 | O=C(O)CN1C(=O)[C@@H](N[C@@H](CCc2ccccc2)C(=O)O)CCc2ccccc21 [Beispiel 19, 1-Carboxymethyl-3S-(1S-carboxy-3-phenylpropylamino)-2,3,4,5-tetrahydro-1H-[1] benzazepin-2-on] |  | 93 |  |  | 14 | 28 | 69 | 70 | 84
